Values of other authors in patent US10654880B2, “Methods for preparation of glycosphingolipids and uses thereof” (priority 2011, dated 2020).

Tested on: breast cancer tumors (4T1 cell line)
Conditions: breast cancer-bearing mice (4T1), relative to untreated group

## CCCCCCCCCCCCCCCCCCCCCCCCCC(=O)N[C@@H](CO[C@H]1O[C@H](CO)[C@H](O)[C@H](O)[C@H]1O)[C@H](O)[C@H](O)CCCCCCCCCCCCCC [α-GalCer, alpha-galactosylceramide]
  inhibition of tumor growth rate: 50%
